Reference: US9079913B2, “Spiro-oxindole MDM2 antagonists” (The Regents of the University of Michigan, priority 2009, dated 2015)
Where two headings read alike, the source gives them in different places.

Experiments:
[1] = target: recombinant human His-tagged MDM2 protein (residues 1-118) (Homo sapiens (Human), UniProt Q00987); assay: Fluorescence-polarization MDM2 binding assay;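 also: fluorescence polarization read after three hours of incubation in potassium phosphate buffer containing bovine gamma globulin and Triton X-100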
Chain of recombinant human His-tagged MDM2 protein (residues 1-118) (Q00987 1-118): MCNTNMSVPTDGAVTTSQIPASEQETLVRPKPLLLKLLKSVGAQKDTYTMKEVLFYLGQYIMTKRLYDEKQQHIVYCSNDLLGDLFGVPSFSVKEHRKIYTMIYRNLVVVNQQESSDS

[2] = test system: cancer cell lines with wild-type p53 / mutated or deleted p53 (ATCC); assay: Cell growth assay (WST-8), other cancer cell lines; assay type: cell-based
[3] = test system: Isogenic HCT-116 colon cancer cell lines; assay: cells; assay type: cell-based;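 also: cells grown in 96-well plates in McCoy's 5A medium with 10% FBS, exposed to compound for 4 days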
Procedure: Cells were seeded in 96-well flat bottom cell culture plates at a density of 2−3×10^3 cells/well with compounds and incubated for 4 days.

[4] = Table 19C, read-out: Bidning affinities to MDM2 as determined using FP assay IC50
[5] = Homo sapiens, LNCaP, Table 19C, LNCaP cells, read-out: Cell growth inhibition using WST assay, LNCaP IC50
[6] = Homo sapiens, PC-3, Table 19C, PC3 cells, read-out: Cell growth inhibition using WST assay, PC3 IC50
[7] = Homo sapiens, HCT-116, read-out: Cell growth inhibition using WST assay, HCT116 p53KO IC50, Table 19C, HCT116 p53KO
[8] = Homo sapiens, HCT-116, read-out: Cell growth inhibition using WST assay, HCT116 p53WT IC50, Table 19C, HCT116 p53WT
[9] = Table 19A, FP binding assay, read-out: MDM2 IC50
[10] = Homo sapiens, LNCaP, Table 19A, LNCAP cells, p53 wild-type, cell growth, read-out: LNCAP (p53 wild-type) IC50
[11] = Homo sapiens, PC-3, Table 19A, PC-3 cells, deleted p53, cell growth, read-out: PC-3 (deleted p53) IC50
[12] = Homo sapiens, HCT-116, read-out: HCT-116 (p53-/-) IC50, Table 19A, HCT-116 p53-/-, cell growth
[13] = Homo sapiens, HCT-116, read-out: HCT-116 (p53 wild-type) IC50, Table 19A, HCT-116 p53 wild-type, cell growth
[14] = Table 19D, read-out: MDM2 Binding Affinities IC50
[15] = Homo sapiens, LNCaP, Table 19D, LNCaP cells, read-out: LNCaP IC50
[16] = Homo sapiens, PC-3, Table 19D, PC3 cells, read-out: PC3 IC50
[17] = Homo sapiens, HCT-116, read-out: HCT116p53KO IC50, Table 19D, HCT116 p53KO
[18] = Homo sapiens, HCT-116, read-out: HCT116p53WT IC50, Table 19D, HCT116 p53WT
[19] = Homo sapiens, SJSA-1, Table 19A, SJSA-1 cells, p53 wild-type, cell growth, read-out: SJSA-1 (p53 wild-type) IC50
[20] = Table 19B, read-out: Binding affinities to MDM2 protein as determined by FP based assay IC50
[21] = Homo sapiens, LNCaP, Table 19B, LNCaP cells, read-out: Inhibition of cell growth IC50, LNCaP
[22] = Homo sapiens, PC-3, Table 19B, PC3 cells, read-out: Inhibition of cell growth IC50, PC3
[23] = Homo sapiens, HCT-116, read-out: Inhibition of cell growth IC50, HCT116 p53 KO, Table 19B, HCT116 p53 KO
[24] = Homo sapiens, HCT-116, read-out: Inhibition of cell growth IC50, HCT116 p53 WT, Table 19B, HCT116 p53 WT

CN(CC[C@H](O)CO)C(=O)[C@@H]1N[C@H](CC(C)(C)C)[C@]2(C(=O)Nc3cc(Cl)c(F)cc32)[C@H]1c1cccc(Cl)c1 [MI-319-29]
IC50 [1, 4]: > 5 µM
IC50 [2, 5]: > 10 µM
IC50 [2, 6]: > 10 µM
IC50 [3, 7]: > 10 µM
IC50 [3, 8]: > 10 µM

CC(C)(C)C[C@H]1N[C@@H](C(=O)NCCN2CC[C@H](O)C2)[C@H](c2cccc(Cl)c2)[C@@]12C(=O)Nc1cc(Cl)c(F)cc12 [MI-519-35]
IC50 [1, 9]: < 1 µM
IC50 [2, 10]: 1.4 ± 0.5 µM
IC50 [2, 11]: 6.7 ± 0.9 µM
IC50 [3, 12]: 5.3 ± 0.6 µM
IC50 [3, 13]: 1.8 ± 0.5 µM

CC(C)(C)C[C@H]1N[C@@H](C(=O)NCC[C@H](O)CO)[C@H](c2ccc(F)c(Cl)c2)[C@@]12C(=O)Nc1cc(F)ccc12 [MI-519-14]
IC50 [1, 14]: < 1 µM
IC50 [2, 15]: < 5 µM
IC50 [2, 16]: > 10 µM
IC50 [3, 17]: > 10 µM
IC50 [3, 18]: < 5 µM

O=C(NCC[C@H](O)CO)[C@@H]1N[C@H](CC2(CCO)CCCC2)[C@]2(C(=O)Nc3cc(Cl)c(F)cc32)[C@H]1c1cccc(Cl)c1 [MI-319-37]
IC50 [1, 4]: < 1 µM
IC50 [2, 5]: < 5 µM
IC50 [2, 6]: > 30 µM
IC50 [3, 7]: > 30 µM
IC50 [3, 8]: < 10 µM

O=C(NCC[C@H](O)CO)[C@H]1[C@H](c2cccc(Cl)c2)[C@@]2(C(=O)Nc3cc(Cl)c(F)cc32)[C@H]2CC3(CCCC3)CCN12 [MI-319-38]
IC50 [1, 4]: > 3 µM
IC50 [2, 5]: > 5 µM
IC50 [2, 6]: > 10 µM
IC50 [3, 7]: > 10 µM
IC50 [3, 8]: > 10 µM

CC(C)(C)C[C@H]1N[C@@H](C(=O)NC2CN(CC(C)(C)O)C2)[C@H](c2cccc(Cl)c2F)[C@@]12C(=O)Nc1cc(Cl)ccc12 [MI-909]
IC50 [1, 9]: < 1 µM
IC50 [2, 10]: < 3 µM
IC50 [2, 11]: > 5 µM
IC50 [2, 19]: < 3 µM
IC50 [3, 12]: > 5 µM
IC50 [3, 13]: < 3 µM

CN1CC[C@@H](NC(=O)[C@@H]2N[C@H](CC(C)(C)C)[C@]3(C(=O)Nc4cc(Cl)ccc43)[C@H]2c2cccc(Cl)c2F)[C@@H](F)C1 [MI-519-58]
IC50 [1, 14]: < 1 µM
IC50 [2, 15]: < 3 µM
IC50 [2, 16]: > 10 µM
IC50 ([2]; Homo sapiens, Table 19D, SJSA-1 cells, unit inferred, read-out: SJSA-1): < 3 µM
IC50 [3, 17]: > 10 µM
IC50 [3, 18]: < 3 µM

CN1[C@@H](C(=O)NCC[C@H](O)CO)[C@H](c2cccc(Cl)c2)[C@@]2(C(=O)Nc3cc(Cl)c(F)cc32)[C@H]1CCCc1cccs1 [MI-711]
IC50 [1, 20]: > 5 µM
IC50 [2, 21]: 4.8 ± 1.1 µM
IC50 [2, 22]: 9.3 ± 2.5 µM
IC50 [3, 23]: 6.3 ± 2.9 µM
IC50 [3, 24]: 8.6 ± 1.2 µM

CCCCC(C)(C)C[C@H]1N[C@@H](C(=O)NCC[C@H](O)CO)[C@H](c2cccc(Cl)c2)[C@@]12C(=O)Nc1cc(Cl)c(F)cc12 [MI-724]
IC50 [1, 20]: < 1 µM
IC50 [2, 21]: 1.2 ± 0.4 µM
IC50 [2, 22]: 3.9 ± 0.2 µM
IC50 [3, 23]: 5.3 ± 0.3 µM
IC50 [3, 24]: 1.1 ± 0.5 µM

CC(C)(C)C[C@H]1N[C@@H](C(=O)NCC[C@H](O)COC(=O)CC(=O)O)[C@H](c2ccc(F)c(Cl)c2)[C@@]12C(=O)Nc1cc(Cl)c(F)cc12 [MI-319-26]
IC50 [1, 4]: < 1 µM
IC50 [2, 5]: < 5 µM
IC50 [2, 6]: > 10 µM
IC50 [3, 7]: > 10 µM
IC50 [3, 8]: < 5 µM

CCCC(C)(C)C[C@H]1N[C@@H](C(=O)NCC[C@H](O)CO)[C@H](c2cccc(Cl)c2)[C@@]12C(=O)Nc1cc(Cl)c(F)cc12 [MI-729]
IC50 [1, 20]: < 1 µM
IC50 [2, 21]: 1 µM
IC50 [2, 22]: 6.1 ± 1.6 µM
IC50 [3, 23]: 8.9 ± 0.1 µM
IC50 [3, 24]: 0.8 ± 0.2 µM

CC[C@H]1N[C@@H](C(=O)NCCN2CCOCC2)[C@H](c2cccc(Cl)c2)[C@@]12C(=O)Nc1cc(Cl)c(F)cc12 [MI-319-39]
IC50 [1, 4]: > 10 µM
IC50 [2, 5]: > 3 µM
IC50 [2, 6]: > 10 µM
IC50 [3, 7]: > 10 µM
IC50 [3, 8]: > 3 µM

CC(C)(C)C[C@H]1N[C@@H](CO)[C@H](c2cccc(Cl)c2)[C@@]12C(=O)Nc1cc(Cl)c(F)cc12 [MI-519-20]
IC50 [1, 14]: < 5 µM
IC50 [2, 15]: 2.2 ± 0.2 µM
IC50 [2, 16]: 9 ± 1.1 µM
IC50 [3, 17]: 13.4 ± 0.8 µM
IC50 [3, 18]: 1.9 ± 0.1 µM

CC(C)(CCO)C[C@H]1N[C@@H](C(=O)NCC[C@H](O)CO)[C@H](c2cccc(Cl)c2)[C@@]12C(=O)Nc1cc(Cl)c(F)cc12 [MI-319-36]
IC50 [1, 4]: < 5 µM
IC50 [2, 5]: 6.4 ± 1.4 µM
IC50 [2, 6]: > 30 µM
IC50 [3, 7]: > 30 µM
IC50 [3, 8]: 12.2 ± 1.7 µM

CC(C)(C)C[C@H]1N[C@@H](C(=O)NC2CCC(OC(=O)C(C)(C)N)CC2)[C@H](c2cccc(Cl)c2F)[C@@]12C(=O)Nc1cc(Cl)ccc12 (stereo partly drawn) [MI-907]
IC50 [1, 9]: < 1 µM
IC50 [2, 10]: < 3 µM
IC50 [2, 11]: 3 µM
IC50 [2, 19]: < 3 µM
IC50 [3, 12]: 7 µM
IC50 [3, 13]: < 3 µM

CC(C)(C)C[C@H]1N[C@@H](C(=O)NC2CCC(OC(=O)[C@H](Cc3ccccc3)NC(=O)OC(C)(C)C)CC2)[C@H](c2cccc(Cl)c2F)[C@@]12C(=O)Nc1cc(Cl)ccc12 (stereo partly drawn) [MI-908]
IC50 [1, 9]: > 10 µM
IC50 [2, 10]: 4.3 µM
IC50 [2, 11]: ~30 µM
IC50 [2, 19]: 22.5 µM
IC50 [3, 12]: > 30 µM
IC50 [3, 13]: 5.3 µM

CC(C)(C)C[C@H]1N[C@@H](C(=O)NCC[C@H]2CC[C@@H](O)C2)[C@H](c2cccc(Cl)c2F)[C@@]12C(=O)Nc1cc(Cl)ccc12 [MI-754]
IC50 [1, 20]: < 1 µM
IC50 ([2]; Table 19B, LNCaP cells, read-out: Inhibition of cell growth IC50, LNCaP): < 3 µM
IC50 ([2]; Table 19B, PC3 cells, read-out: Inhibition of cell growth IC50, PC3): > 5 µM
IC50 ([3]; read-out: Inhibition of cell growth IC50, HCT116 p53 KO, Table 19B, HCT116 p53 KO): > 5 µM
IC50 ([3]; read-out: Inhibition of cell growth IC50, HCT116 p53 WT, Table 19B, HCT116 p53 WT): < 3 µM

CC(C)(C)C[C@H]1N[C@@H](C(=O)NCC[C@H](O)CO)[C@H](Cc2ccccc2)[C@@]12C(=O)Nc1cc(Cl)c(F)cc12 [MI-319-23]
IC50 [1, 4]: > 10 µM
IC50 [2, 5]: > 10 µM
IC50 [2, 6]: > 10 µM
IC50 [3, 7]: > 10 µM
IC50 [3, 8]: > 10 µM

CC(C)(C)C[C@H]1N[C@@H](C(=O)NC2CCN(CCF)CC2)[C@H](c2cccc(Cl)c2F)[C@@]12C(=O)Nc1cc(Cl)ccc12 [MI-519-56]
IC50 [1, 9]: < 1 µM
IC50 [2, 10]: > 10 µM
IC50 [2, 19]: < 1 µM
IC50 [3, 13]: < 1 µM

CC(C)(C)C[C@H]1N[C@@H](C(=O)N2CCN(C(=O)C3CC3)CC2)[C@H](c2cccc(Cl)c2)[C@@]12C(=O)N(C(=O)C1CC1)c1cc(Cl)c(F)cc12 [MI-743B]
IC50 [1, 20]: > 100 µM
IC50 [2, 21]: > 1 µM
IC50 [2, 22]: > 1 µM
IC50 [3, 23]: > 1 µM
IC50 [3, 24]: > 1 µM

O=C(NC1CCC(O)CC1)[C@@H]1N[C@H](CC2CCCC2)[C@]2(C(=O)Nc3cc(Cl)ccc32)[C@H]1c1cccc(Cl)c1F (stereo partly drawn) [MI-791]
IC50 [1, 9]: < 3 µM
IC50 [2, 10]: < 3 µM
IC50 [2, 11]: > 10 µM
IC50 [2, 19]: < 3 µM
IC50 [3, 12]: > 10 µM
IC50 [3, 13]: < 3 µM

CCC(C)(C)C[C@H]1N[C@@H](C(=O)NCC[C@H](O)CO)[C@H](c2cccc(Cl)c2)[C@@]12C(=O)Nc1cc(Cl)c(F)cc12 [MI-720]
IC50 [1, 20]: < 1 µM
IC50 [2, 21]: 0.76 ± 0.1 µM
IC50 [2, 22]: 15.2 ± 3.2 µM
IC50 [3, 23]: 19.5 ± 5.6 µM
IC50 [3, 24]: 0.69 µM
